Test results as given in US7670604B2, “Vimentin directed diagnostics and therapeutics for multidrug resistant neoplastic disease” (Aurelium Biopharma, Inc., priority 2002, dated 2010).
“Also recorded” adds a separate entry of the source.

Columns and labels:
[1] = tested on: hematological tumor cells; test: Vimentin vaccination of mice injected with hematological tumor cells; format: in vivo; settings: mice vaccinated prior to injection of the tumor cells
MDA cells = test: Induction of surface exposure of vimentin by drugs, intact cell radioimmunoassay; format: cell-based; settings: 1 or 10 μM taxol, 1 or 10 μM doxorubicin, 0.1 or 1 μM mitoxanthrone, 12 to 16 hours
[2] = tested on: antigen-positive E3 cell line; settings: Krauer et al. 1992, read-out: IC50 (cytotoxicities); cited from earlier work
lysosomal hydrolases = settings: cited from earlier work
[3] = Rowland et al. 1993; cited from earlier work
E3 target cells = settings: Pietersz et al. 1988; cited from earlier work

Compound: vimentin: purified full length murine vimentin protein used as vaccine antigen, may be given with adjuvant
- tumor size versus mice not vaccinated [1]: smaller

Compound: O=C1c2c(O)ccc(O)c2C(=O)c2c(NCCNCCO)ccc(NCCNCCO)c21 [mitoxanthrone]
- induction of surface exposure of vimentin (MDA cells): slight induction; also recorded: most significant effect

Compound: CC(=O)O[C@H]1C(=O)[C@@]2(C)[C@H]([C@H](OC(=O)c3ccccc3)[C@]3(O)C[C@H](OC(=O)[C@H](O)[C@@H](NC(=O)c4ccccc4)c4ccccc4)C(C)=C1C3(C)C)[C@]1(OC(C)=O)CO[C@@H]1C[C@@H]2O [taxol]
- induction of surface exposure of vimentin (MDA cells): slight induction

Compound: O=c1[nH]c(=O)n([C@H]2C[C@H](O)[C@@H](CO)O2)cc1F [FUDR, 5-fluoro-2′-deoxyuridine]
- IC50 [2]: 0.4 nM

Compound: COc1cccc2c1C(=O)c1c(O)c3c(c(O)c1C2=O)CC(O)(C(C)=O)CC3OC1CC(NC(=O)C(CC(C)C)NC(=O)C(C)N)C(O)C(C)O1 (stereo not drawn) [Ala-Leu-Dau derivative]
- time for conversion back to the free drug (lysosomal hydrolases): 2 h

Compound: COc1cccc2c1C(=O)c1c(O)c3c(c(O)c1C2=O)C[C@@](O)(C(=O)CO)C[C@@H]3O[C@H]1C[C@H](N)[C@H](O)[C@H](C)O1 [doxorubicin]
- induction of surface exposure of vimentin (MDA cells): slight induction

Compound: CC(=O)[C@]1(O)Cc2c(O)c3c(c(O)c2[C@@H](O[C@H]2C[C@H](N)[C@H](O)[C@H](C)O2)C1)C(=O)c1ccccc1C3=O [Ida, Idarubicin]
- activities [3]: 12 nM
- IC50 (E3 target cells): 120 nM
